# According to ChEMBL document CHEMBL1201862, “PubChem BioAssay data set” (2004):
# Active and inactive are the calls of the source. Cut-off read from the data, not from the text of the source, for most assays here: actives have a measured IC50 and inactives only a lower limit.
# Key:
# [1] = Luminescence-based dose response cell-based high throughput screening assay for cytotoxic compounds using the IEC-6 intestinal epithelial cell line. [Related pubchem assays: 1858 (Summary AID.), 1825 (Counterscreen.), 1907 (Confirmation screen.)]; format: functional
# [2] = target: T1, Kappa-type opioid receptor (Homo sapiens, UniProt P41145); format: functional
# [3] = target: T2, Type-1 angiotensin II receptor (Homo sapiens, UniProt P30556); test: AT1 receptor antagonists, dose response, selectivity assay for APJ receptor antagonist project, cell-based, uHTS hits (AID 463214); format: functional;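 note: antagonist potency against angiotensin II stimulated AT1 response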
# T2 sequence (P30556 whole entry): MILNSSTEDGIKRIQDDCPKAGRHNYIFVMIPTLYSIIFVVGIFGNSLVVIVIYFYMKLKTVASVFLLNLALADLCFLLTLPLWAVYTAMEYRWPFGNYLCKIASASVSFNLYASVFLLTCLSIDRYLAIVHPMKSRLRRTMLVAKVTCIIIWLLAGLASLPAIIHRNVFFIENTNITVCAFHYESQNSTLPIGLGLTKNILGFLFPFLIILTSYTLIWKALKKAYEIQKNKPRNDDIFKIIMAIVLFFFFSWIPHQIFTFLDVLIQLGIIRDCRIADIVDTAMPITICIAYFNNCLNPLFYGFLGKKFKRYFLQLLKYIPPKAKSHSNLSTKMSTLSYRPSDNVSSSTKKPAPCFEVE
# Beta-galactosidase [4] = target: T3, Beta-galactosidase (Escherichia coli, UniProt Q8VNN2); format: functional
# [5] = target: T1, Kappa-type opioid receptor; format: functional; remark: listed apart in the source
# [6] = cytotoxicity in HEK-293T cells, dose response, cytotoxicity control for TCR NF-kB inhibitor project, luminescence, T-cell screen hits (AID 489026); format: functional, cell-based;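 note: cells exposed to compound about 14 hours before the viability readout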
# Beta-galactosidase [7] = target: T3, Beta-galactosidase; test: PubChem AID 485352; format: functional
# [8] = target: E3 ubiquitin-protein ligase Mdm2 (Homo sapiens, UniProt Q00987); test: enhancers of MDM2-luciferase reporter signal, concentration-effect titration, project on inhibitors of MDM2 ubiquitin ligase, cellular assay, luminescent readout, 384-well plate format (AID 1394); format: functional;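 note: MDM2 E3 inhibitors raise luminescence so EC50 is for signal enhancement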
# [9] = target: T4, Dual specificity protein phosphatase 3 (Homo sapiens, UniProt P51452); test: MOA VHR1 Fluorescent secondary assay for identification of redox-state modulating compounds. [Related pubchem assays (depositor defined):AID1654, AID1661, AID1878, AID1957]
# [10] = target: T5, Dual specificity protein phosphatase 6 (Rattus norvegicus, UniProt Q64346); format: functional
# T5 sequence (Q64346 whole entry): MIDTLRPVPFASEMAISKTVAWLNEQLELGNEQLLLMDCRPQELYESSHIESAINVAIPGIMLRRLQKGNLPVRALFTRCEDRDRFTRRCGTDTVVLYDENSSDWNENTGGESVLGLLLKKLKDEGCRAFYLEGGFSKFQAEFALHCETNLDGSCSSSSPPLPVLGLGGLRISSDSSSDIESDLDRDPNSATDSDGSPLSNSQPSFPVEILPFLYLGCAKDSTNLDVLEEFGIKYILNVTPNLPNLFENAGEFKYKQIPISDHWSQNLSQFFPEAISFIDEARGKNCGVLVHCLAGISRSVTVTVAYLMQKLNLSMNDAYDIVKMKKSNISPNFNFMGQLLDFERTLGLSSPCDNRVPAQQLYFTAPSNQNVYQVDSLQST
# [11] = target: Glyceraldehyde-3-phosphate dehydrogenase (Homo sapiens, UniProt P04406)
# [12] = target: T6, Tyrosine-protein phosphatase non-receptor type 7 (Homo sapiens, UniProt P35236); format: functional
# T6 sequence (P35236 whole entry): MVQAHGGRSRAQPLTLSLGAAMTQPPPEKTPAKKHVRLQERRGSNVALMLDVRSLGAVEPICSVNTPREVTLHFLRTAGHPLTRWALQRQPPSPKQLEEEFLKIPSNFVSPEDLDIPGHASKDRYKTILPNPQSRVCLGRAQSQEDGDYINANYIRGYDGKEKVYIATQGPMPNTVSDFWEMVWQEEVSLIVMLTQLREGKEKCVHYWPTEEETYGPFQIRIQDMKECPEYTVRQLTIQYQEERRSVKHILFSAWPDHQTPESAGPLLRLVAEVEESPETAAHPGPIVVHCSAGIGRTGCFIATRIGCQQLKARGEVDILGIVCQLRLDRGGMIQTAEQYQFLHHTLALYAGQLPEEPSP
# [13] = target: T4, Dual specificity protein phosphatase 3; test: SAR VHR1 Fluorescent Assay for In Vitro dose response studies. [Related pubchem assays (depositor defined):AID1654, AID1661, AID1878, AID1992, AID2004, AID2070, AID2085]; format: functional
# [14] = target: T6, Tyrosine-protein phosphatase non-receptor type 7; test: redox-dependent HePTP inhibition, mechanism study, biochemical, fluorescence (AID 2068); format: functional
# [15] = target: T5, Dual specificity protein phosphatase 6
# [16] = target: T7, Eukaryotic translation initiation factor 4H (Homo sapiens, UniProt Q15056); test: human eIF4H binding inhibitors, primary screen, translation initiation inhibitor project, biochemical, uHTS, fluorescence polarization (AID 2012)
# [17] = target: T8, Polyadenylate-binding protein 1 (Homo sapiens, UniProt P11940); test: PABP poly(A) RNA binding inhibitors, primary screen, biochemical, fluorescence polarization, uHTS (AID 2014)
# [18] = target: T9, Carboxy-terminal domain RNA polymerase II polypeptide A small phosphatase 1 (Homo sapiens, UniProt Q9GZU7); test: inhibitors of CTDSP1, concentration-response testing, biochemical assay, absorbance-based, actives from ultra-high-throughput screening (AID 540297); format: functional
# T9 sequence (Q9GZU7 whole entry): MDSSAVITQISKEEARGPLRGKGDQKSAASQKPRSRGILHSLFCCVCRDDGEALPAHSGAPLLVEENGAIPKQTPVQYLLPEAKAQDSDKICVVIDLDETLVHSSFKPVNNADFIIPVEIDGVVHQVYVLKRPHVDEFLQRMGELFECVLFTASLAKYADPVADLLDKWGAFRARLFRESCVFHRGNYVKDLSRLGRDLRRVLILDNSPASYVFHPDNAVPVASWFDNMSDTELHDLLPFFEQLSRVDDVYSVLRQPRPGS
# [19] = target: T8, Polyadenylate-binding protein 1; test: PABP inhibition in translation initiation, SAR follow-up (AID 435018); format: functional
# [20] = target: T7, Eukaryotic translation initiation factor 4H; test: eIF4H inhibition in translation initiation, SAR follow-up (AID 435011); format: functional
# T8 sequence (P11940 whole entry, the tested form may be a part): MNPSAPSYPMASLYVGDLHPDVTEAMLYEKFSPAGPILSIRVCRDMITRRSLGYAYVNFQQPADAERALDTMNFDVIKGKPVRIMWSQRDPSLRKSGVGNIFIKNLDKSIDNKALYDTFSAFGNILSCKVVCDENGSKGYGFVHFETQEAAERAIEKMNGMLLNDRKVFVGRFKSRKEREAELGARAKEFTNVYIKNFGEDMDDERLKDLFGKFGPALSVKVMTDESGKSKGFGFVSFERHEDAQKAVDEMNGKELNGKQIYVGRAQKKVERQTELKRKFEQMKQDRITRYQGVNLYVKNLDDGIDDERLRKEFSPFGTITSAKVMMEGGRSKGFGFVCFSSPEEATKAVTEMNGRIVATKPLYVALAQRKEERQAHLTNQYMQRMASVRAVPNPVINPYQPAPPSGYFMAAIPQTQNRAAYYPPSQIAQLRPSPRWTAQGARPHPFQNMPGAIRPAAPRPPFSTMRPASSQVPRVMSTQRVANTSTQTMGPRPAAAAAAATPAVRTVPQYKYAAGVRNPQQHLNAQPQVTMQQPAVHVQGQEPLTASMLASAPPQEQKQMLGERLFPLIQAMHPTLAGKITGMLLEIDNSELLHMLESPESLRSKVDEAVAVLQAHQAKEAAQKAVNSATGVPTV
# T1 sequence (P41145 whole entry): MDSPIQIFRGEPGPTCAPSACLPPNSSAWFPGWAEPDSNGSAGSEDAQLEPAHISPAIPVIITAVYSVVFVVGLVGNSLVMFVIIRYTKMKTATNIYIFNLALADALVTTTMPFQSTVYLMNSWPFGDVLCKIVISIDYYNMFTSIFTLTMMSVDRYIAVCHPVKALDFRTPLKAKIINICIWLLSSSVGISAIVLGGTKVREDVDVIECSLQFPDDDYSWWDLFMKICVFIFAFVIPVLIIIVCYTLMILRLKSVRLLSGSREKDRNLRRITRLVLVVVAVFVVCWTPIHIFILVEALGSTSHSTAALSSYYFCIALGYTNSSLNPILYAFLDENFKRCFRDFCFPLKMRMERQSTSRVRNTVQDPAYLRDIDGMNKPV
# T3 sequence (Q8VNN2 whole entry): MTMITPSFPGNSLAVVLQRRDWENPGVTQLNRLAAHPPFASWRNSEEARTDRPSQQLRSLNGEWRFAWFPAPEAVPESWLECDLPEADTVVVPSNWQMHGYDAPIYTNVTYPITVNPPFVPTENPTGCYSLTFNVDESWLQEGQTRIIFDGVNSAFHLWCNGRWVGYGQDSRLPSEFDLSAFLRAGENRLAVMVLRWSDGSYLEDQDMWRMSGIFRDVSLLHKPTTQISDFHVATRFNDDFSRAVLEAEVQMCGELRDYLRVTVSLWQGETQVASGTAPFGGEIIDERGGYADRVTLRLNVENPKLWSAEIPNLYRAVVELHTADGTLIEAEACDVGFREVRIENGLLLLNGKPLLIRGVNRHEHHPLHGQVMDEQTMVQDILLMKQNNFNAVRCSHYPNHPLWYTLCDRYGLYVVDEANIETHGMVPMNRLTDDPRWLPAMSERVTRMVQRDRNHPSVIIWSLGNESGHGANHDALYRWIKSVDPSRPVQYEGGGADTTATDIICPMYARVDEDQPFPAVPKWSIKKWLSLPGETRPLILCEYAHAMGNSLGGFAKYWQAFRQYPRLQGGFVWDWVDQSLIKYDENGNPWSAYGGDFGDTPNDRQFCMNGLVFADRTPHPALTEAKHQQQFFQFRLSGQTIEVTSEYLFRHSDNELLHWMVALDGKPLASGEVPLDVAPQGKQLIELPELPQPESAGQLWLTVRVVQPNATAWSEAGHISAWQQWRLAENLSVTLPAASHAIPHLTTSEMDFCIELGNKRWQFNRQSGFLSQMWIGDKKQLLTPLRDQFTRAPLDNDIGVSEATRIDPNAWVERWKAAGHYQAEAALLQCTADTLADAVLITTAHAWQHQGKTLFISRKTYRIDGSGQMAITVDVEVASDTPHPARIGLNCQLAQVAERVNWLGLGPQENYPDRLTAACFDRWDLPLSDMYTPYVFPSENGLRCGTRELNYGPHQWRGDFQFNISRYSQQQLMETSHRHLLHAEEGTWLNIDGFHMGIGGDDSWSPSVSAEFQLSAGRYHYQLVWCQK
# T4 sequence (P51452 whole entry): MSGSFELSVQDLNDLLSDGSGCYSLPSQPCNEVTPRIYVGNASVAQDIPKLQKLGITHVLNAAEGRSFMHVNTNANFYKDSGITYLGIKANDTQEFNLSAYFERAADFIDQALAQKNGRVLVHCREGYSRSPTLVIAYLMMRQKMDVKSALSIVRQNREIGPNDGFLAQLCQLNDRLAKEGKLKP
# Sequence of Glyceraldehyde-3-phosphate dehydrogenase (P04406 whole entry): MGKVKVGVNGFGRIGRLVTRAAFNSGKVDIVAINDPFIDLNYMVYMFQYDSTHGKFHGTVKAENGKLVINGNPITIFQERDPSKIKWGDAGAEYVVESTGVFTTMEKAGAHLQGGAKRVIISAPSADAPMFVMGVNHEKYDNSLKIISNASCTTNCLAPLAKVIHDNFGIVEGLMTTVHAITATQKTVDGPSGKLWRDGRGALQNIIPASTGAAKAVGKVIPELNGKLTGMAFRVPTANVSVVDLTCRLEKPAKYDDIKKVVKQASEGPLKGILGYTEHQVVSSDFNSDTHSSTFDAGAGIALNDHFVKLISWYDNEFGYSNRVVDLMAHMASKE
# Sequence of E3 ubiquitin-protein ligase Mdm2 (Q00987 whole entry): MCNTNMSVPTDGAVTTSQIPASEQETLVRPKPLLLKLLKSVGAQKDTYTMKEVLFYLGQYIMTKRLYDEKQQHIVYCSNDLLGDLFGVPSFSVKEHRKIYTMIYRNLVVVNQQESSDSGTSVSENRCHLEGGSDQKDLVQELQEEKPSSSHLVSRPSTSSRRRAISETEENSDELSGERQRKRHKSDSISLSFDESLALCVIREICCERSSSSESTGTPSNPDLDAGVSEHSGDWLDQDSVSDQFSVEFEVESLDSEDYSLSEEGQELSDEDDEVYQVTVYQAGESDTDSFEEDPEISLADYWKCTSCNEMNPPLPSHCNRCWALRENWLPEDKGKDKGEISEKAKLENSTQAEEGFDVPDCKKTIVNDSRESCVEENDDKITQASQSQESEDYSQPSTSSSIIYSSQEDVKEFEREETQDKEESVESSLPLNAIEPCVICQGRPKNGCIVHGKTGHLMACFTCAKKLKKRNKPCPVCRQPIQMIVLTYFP
structure (smiles),measurement,setting,value
COc1ccc(C[S+]([O-])/C(Cl)=C(/Cl)C(=O)Nc2ccc(OC)nc2)cc1 (stereo not given),IC50,[1],1.65 µM (active)
same,IC50,[2],8.26 µM
same,IC50,[3],2.92 µM (active)
same,EC50,Beta-galactosidase [4],> 31.5 µM (inactive)
same,IC50,[5],5.22 µM (active)
same,IC50,[6],31.5 µM (inactive)
same,EC50,Beta-galactosidase [7],> 40 µM (inactive)
same,EC50,[8],0.56 µM (active)
O=C(O)c1ccc(-c2ccc(/C=c3\sc4nc5ccccc5n4c3=O)o2)cc1,IC50,[9],6.21 µM (active)
same,IC50,[10],6.59 µM (active)
same,IC50,[11],> 100 µM (not active)
same,IC50,[12],3.26 µM (active)
same,IC50,[13],33.5 µM (active)
same,IC50,[14],5.78 µM (active)
same,IC50,[15],8.6 µM (active)
CC(C)c1ccc(OC(=O)c2cccc(S(=O)(=O)N3CCN(C)CC3)c2)cc1,IC50,[16],> 100 µM (inactive)
same,IC50,[17],6.93 µM (active)
same,IC50,[18],11.6 µM (active)
same,IC50,[19],15.7 µM (active)
same,IC50,[20],27.6 µM (active)
